Results from patent US20070232601A1, “Vla-4 Inhibitor” (priority 2004, published 2007).

Columns and labels:
[1] = Dispersibility test in Japanese Pharmacopoeia First and Second Solution; format: physicochemical; details: for Dispersibility in Japanese Pharmacopoeia First Solution: JP1, pH 1.2; for Dispersibility in Japanese Pharmacopoeia Second Solution: JP2, pH 6.8
Method: Dispersibility of a test substance in Japanese Pharmacopoeia First Solution (JP1, pH 1.2) and Japanese Pharmacopoeia Second Solution (JP2, pH 6.8) was evaluated.

[2] = molecular target: T1, hα4 and β1 integrins (VLA-4) (Homo sapiens, UniProt P05556+P13612); assay: In vitro evaluation: inhibition of binding of CHO cells expressing hα4 and β1 integrins to Eu3+-hVCAM-1 D1D7-IgG; details: ligand Eu3+-hVCAM-1 D1D7-IgG 2 nM, Ki calculated from IC50
T1 construct: expressed in transfected cells; host or cells: CHO cells
Procedure, shortened: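 CHO cells stably expressing hα4β1 were cultured 2 days, then incubated 1 h at room temperature with Eu3+-hVCAM-1 D1D7-IgG (added as 2 nM solution) and compound in HEPES pH 7.5 with Ca2+, Mg2+ and 4 mM Mn2+, ± 6% human serum albumin. Bound europium was read by time-resolved fluorescence; IC50 was converted to Ki using Scatchard-derived Kd.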

T1 sequence (P13612 34-1032): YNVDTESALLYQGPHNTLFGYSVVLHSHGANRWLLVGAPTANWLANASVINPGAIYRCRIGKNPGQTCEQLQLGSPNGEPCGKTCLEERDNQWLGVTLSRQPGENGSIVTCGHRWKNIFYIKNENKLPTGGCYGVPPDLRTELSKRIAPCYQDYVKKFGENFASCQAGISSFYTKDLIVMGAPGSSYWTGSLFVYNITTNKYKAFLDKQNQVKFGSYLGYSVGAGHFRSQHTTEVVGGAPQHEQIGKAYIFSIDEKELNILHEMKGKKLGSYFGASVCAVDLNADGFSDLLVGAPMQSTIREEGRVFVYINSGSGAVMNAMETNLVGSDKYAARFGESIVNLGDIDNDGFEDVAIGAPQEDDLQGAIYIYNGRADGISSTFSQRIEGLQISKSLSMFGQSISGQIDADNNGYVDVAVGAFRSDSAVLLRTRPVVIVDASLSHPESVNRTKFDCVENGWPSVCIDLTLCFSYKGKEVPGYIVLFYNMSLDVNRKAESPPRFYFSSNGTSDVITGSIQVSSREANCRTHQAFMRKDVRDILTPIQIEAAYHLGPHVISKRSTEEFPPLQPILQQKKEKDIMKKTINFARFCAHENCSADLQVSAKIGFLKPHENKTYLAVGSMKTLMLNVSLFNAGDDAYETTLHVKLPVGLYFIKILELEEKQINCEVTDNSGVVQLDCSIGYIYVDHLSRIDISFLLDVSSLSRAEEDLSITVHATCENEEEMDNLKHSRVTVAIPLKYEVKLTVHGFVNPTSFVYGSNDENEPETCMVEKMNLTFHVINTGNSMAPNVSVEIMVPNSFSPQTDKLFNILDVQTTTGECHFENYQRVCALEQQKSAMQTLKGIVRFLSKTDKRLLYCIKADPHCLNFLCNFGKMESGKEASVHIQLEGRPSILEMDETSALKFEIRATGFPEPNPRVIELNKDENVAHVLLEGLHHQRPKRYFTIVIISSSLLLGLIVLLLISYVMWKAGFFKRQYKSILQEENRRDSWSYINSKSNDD
T1 sequence (P05556 21-798): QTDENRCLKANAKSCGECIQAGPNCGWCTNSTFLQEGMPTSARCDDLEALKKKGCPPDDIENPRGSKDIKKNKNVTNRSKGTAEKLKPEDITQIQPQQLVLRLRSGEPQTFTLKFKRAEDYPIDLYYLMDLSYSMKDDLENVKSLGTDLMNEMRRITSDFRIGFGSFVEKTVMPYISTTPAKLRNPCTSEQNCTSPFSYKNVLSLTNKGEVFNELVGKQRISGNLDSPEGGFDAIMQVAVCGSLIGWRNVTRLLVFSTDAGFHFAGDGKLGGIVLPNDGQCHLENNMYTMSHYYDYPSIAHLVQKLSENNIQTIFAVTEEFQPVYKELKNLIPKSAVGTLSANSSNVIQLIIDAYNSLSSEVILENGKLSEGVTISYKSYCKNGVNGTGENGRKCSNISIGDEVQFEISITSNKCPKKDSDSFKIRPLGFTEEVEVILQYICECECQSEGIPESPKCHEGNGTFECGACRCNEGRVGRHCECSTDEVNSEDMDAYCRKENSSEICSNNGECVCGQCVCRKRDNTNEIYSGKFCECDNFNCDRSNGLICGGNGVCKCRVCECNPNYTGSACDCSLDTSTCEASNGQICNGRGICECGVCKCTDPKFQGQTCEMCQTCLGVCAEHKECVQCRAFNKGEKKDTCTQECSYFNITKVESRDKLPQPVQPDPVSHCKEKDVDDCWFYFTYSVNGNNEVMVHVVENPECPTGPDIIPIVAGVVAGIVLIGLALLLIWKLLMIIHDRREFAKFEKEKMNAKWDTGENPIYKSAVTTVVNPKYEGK

SMILES: Cn1cc(C(=O)Nc2cc(Cl)c(CC(=O)N3C[C@@H](N4CCC(F)(F)CC4)C[C@H]3c3ncc(CCC(=O)O)s3)cc2Cl)c2ccccc21 [Example 74, 3-[2-[1-[2,5-Dichloro-4-(1-methyl-3-indolylcarbonylamino)phenylacetyl]-(4S)-[1-(4,4-difluoro)piperidinyl]-(2S)-pyrrolidinyl]-5-thiazolyl]propionic acid]
- Dispersibility in Japanese Pharmacopoeia First Solution [1]: 130 µg/mL
- Dispersibility in Japanese Pharmacopoeia Second Solution [1]: 150 µg/mL
- Ki [2]: 1.2 nM

SMILES: O=C(O)CCc1cnc([C@@H]2C[C@H](N3CCC(F)(F)CC3)CN2C(=O)Cc2cc(Cl)c(NC(=O)c3csc4ccccc34)cc2F)s1 [Example 75, 3-[2-[1-[4-(3-Benzo[b]thiophenylcarbonylamino)-5-chloro-2-fluorophenylacetyl]-(4S)-[1-(4,4-difluoro)piperidinyl]-(2S)-pyrrolidinyl]-5-thiazolyl]propionic acid]
- Dispersibility in Japanese Pharmacopoeia First Solution [1]: 220 µg/mL
- Dispersibility in Japanese Pharmacopoeia Second Solution [1]: 160 µg/mL
- Ki [2]: 0.47 nM

SMILES: O=C(O)CCc1cnc([C@@H]2C[C@H](N3CCC(F)(F)CC3)CN2C(=O)Cc2cc(Cl)c(NC(=O)c3csc4ccccc34)cc2Cl)s1 [Example 76]
- Dispersibility in Japanese Pharmacopoeia First Solution [1]: 110 µg/mL
- Dispersibility in Japanese Pharmacopoeia Second Solution [1]: 83 µg/mL
- Ki [2]: 0.79 nM

SMILES: O=C(O)CCc1cnc([C@@H]2C[C@H](N3CCC(F)(F)CC3)CN2C(=O)Cc2cc(Cl)c(NC(=O)c3coc4ccccc34)cc2F)s1 [Example 77, 3-[2-[1-[4-(3-Benzo[b]furanylcarbonylamino)-5-chloro-2-fluorophenylacetyl]-(4S)-[1-(4,4-difluoro)piperidinyl]-(2S)-pyrrolidinyl]-5-thiazolyl]propionic acid]
- Dispersibility in Japanese Pharmacopoeia First Solution [1]: 430 µg/mL
- Dispersibility in Japanese Pharmacopoeia Second Solution [1]: 380 µg/mL
- Ki [2]: 0.72 nM

SMILES: O=C(O)CCc1cnc([C@@H]2C[C@H](N3CCC(F)(F)CC3)CN2C(=O)Cc2cc(Cl)c(NC(=O)c3coc4ccccc34)cc2Cl)s1 [Example 78, 3-[2-[1-[4-(3-Benzo[b]furanylcarbonylamino)-2,5-dichlorophenylacetyl]-(4S)-[1-(4,4-difluoro)piperidinyl]-(2S)-pyrrolidinyl]-5-thiazolyl]propionic acid]
- Dispersibility in Japanese Pharmacopoeia First Solution [1]: 260 µg/mL
- Dispersibility in Japanese Pharmacopoeia Second Solution [1]: 230 µg/mL
- Ki [2]: 1.2 nM

SMILES: Cn1cc(C(=O)Nc2cc(F)c(CC(=O)N3C[C@@H](N4CCN(CC(F)(F)F)CC4)C[C@H]3c3ncc(CCC(=O)O)s3)cc2Cl)c2ccccc21 [Example 79, 3-[2-[1-[5-Chloro-2-fluoro-4-(1-methyl-3-indolylcarbonylamino)phenylacetyl]-(4S)-[1-(4-(2,2,2-trifluoro)ethyl)piperazinyl]-(2S)-pyrrolidinyl]-5-thiazolyl]propionic acid]
- Dispersibility in Japanese Pharmacopoeia First Solution [1]: 250 µg/mL
- Dispersibility in Japanese Pharmacopoeia Second Solution [1]: 670 µg/mL
- Ki [2]: 1.5 nM

SMILES: Cn1cc(C(=O)Nc2cc(Cl)c(CC(=O)N3C[C@@H](N4CCN(CC(F)(F)F)CC4)C[C@H]3c3ncc(CCC(=O)O)s3)cc2Cl)c2ccccc21 [Example 80, 3-[2-[1-[2,5-Dichloro-4-(1-methyl-3-indolylcarbonylamino)phenylacetyl]-(4S)-[1-(4-(2,2,2-trifluoro)ethyl)piperazinyl]-(2S)-pyrrolidinyl]-5-thiazolyl]propionic acid]
- Dispersibility in Japanese Pharmacopoeia First Solution [1]: 110 µg/mL
- Dispersibility in Japanese Pharmacopoeia Second Solution [1]: 730 µg/mL
- Ki [2]: 2 nM

SMILES: O=C(O)CCc1cnc([C@@H]2C[C@H](N3CCN(CC(F)(F)F)CC3)CN2C(=O)Cc2cc(Cl)c(NC(=O)c3csc4ccccc34)cc2F)s1 [Example 81, 3-[2-[1-[4-(3-Benzo[b]thiophenylcarbonylamino)-5-chloro-2-fluorophenylacetyl]-(4S)-[1-(4-(2,2,2-trifluoro)ethyl)piperazinyl]-(2S)-pyrrolidinyl]-5-thiazolyl]propionic acid]
- Dispersibility in Japanese Pharmacopoeia First Solution [1]: 210 µg/mL
- Dispersibility in Japanese Pharmacopoeia Second Solution [1]: 680 µg/mL
- Ki [2]: 1.3 nM

SMILES: O=C(O)CCc1cnc([C@@H]2C[C@H](N3CCN(CC(F)(F)F)CC3)CN2C(=O)Cc2cc(Cl)c(NC(=O)c3csc4ccccc34)cc2Cl)s1 [Example 82]
- Dispersibility in Japanese Pharmacopoeia First Solution [1]: 96 µg/mL
- Dispersibility in Japanese Pharmacopoeia Second Solution [1]: 320 µg/mL
- Ki [2]: 1.3 nM

SMILES: O=C(O)CCc1cnc([C@@H]2C[C@H](N3CCN(CC(F)(F)F)CC3)CN2C(=O)Cc2cc(Cl)c(NC(=O)c3coc4ccccc34)cc2F)s1 [Example 83]
- Dispersibility in Japanese Pharmacopoeia First Solution [1]: 540 µg/mL
- Dispersibility in Japanese Pharmacopoeia Second Solution [1]: 1000 µg/mL
- Ki [2]: 1.6 nM

SMILES: O=C(O)CCc1cnc([C@@H]2C[C@H](N3CCN(CC(F)(F)F)CC3)CN2C(=O)Cc2cc(Cl)c(NC(=O)c3coc4ccccc34)cc2Cl)s1 [Example 84]
- Dispersibility in Japanese Pharmacopoeia First Solution [1]: 280 µg/mL
- Dispersibility in Japanese Pharmacopoeia Second Solution [1]: 760 µg/mL
- Ki [2]: 1.5 nM

SMILES: C[C@@H]1CN([C@H]2C[C@@H](c3ncc(CCC(=O)O)s3)N(C(=O)Cc3cc(Cl)c(NC(=O)c4cn(C)c5ccccc45)cc3F)C2)C[C@H](C)O1 [Example 85, 3-[2-[1-[5-Chloro-2-fluoro-4-(1-methyl-3-indolylcarbonylamino)phenylacetyl]-(4S)-[4-(cis-2,6-dimethyl)morpholinyl]-(2S)-pyrrolidinyl]-5-thiazolyl]propionic acid]
- Dispersibility in Japanese Pharmacopoeia First Solution [1]: 1200 µg/mL
- Dispersibility in Japanese Pharmacopoeia Second Solution [1]: 1300 µg/mL
- Ki [2]: 1 nM

SMILES: C[C@@H]1CN([C@H]2C[C@@H](c3ncc(CCC(=O)O)s3)N(C(=O)Cc3cc(Cl)c(NC(=O)c4cn(C)c5ccccc45)cc3Cl)C2)C[C@H](C)O1 [Example 86, 3-[2-[1-[2,5-Dichloro-4-(1-methyl-3-indolylcarbonylamino)phenylacetyl]-(4S)-[4-(cis-2,6-dimethyl)morpholinyl]-(2S)-pyrrolidinyl]-5-thiazolyl]propionic acid]
- Dispersibility in Japanese Pharmacopoeia First Solution [1]: 1200 µg/mL
- Dispersibility in Japanese Pharmacopoeia Second Solution [1]: 1400 µg/mL
- Ki [2]: 1 nM

SMILES: C[C@@H]1CN([C@H]2C[C@@H](c3ncc(CCC(=O)O)s3)N(C(=O)Cc3cc(Cl)c(NC(=O)c4csc5ccccc45)cc3F)C2)C[C@H](C)O1 [Example 87, 3-[2-[1-[4-(3-Benzo[b]thiophenylcarbonylamino)-5-chloro-2-fluorophenylacetyl]-(4S)-[4-(cis-2,6-dimethyl)morpholinyl]-(2S)-pyrrolidinyl]-5-thiazolyl]propionic acid]
- Dispersibility in Japanese Pharmacopoeia First Solution [1]: 1200 µg/mL
- Dispersibility in Japanese Pharmacopoeia Second Solution [1]: 1300 µg/mL
- Ki [2]: 1 nM

SMILES: C[C@@H]1CN([C@H]2C[C@@H](c3ncc(CCC(=O)O)s3)N(C(=O)Cc3cc(Cl)c(NC(=O)c4csc5ccccc45)cc3Cl)C2)C[C@H](C)O1 [Example 88, 3-[2-[1-[4-(3-Benzo[b]thiophenylcarbonylamino)-2,5-dichlorophenylacetyl]-(4S)-[4-(cis-2,6-dimethyl)morpholinyl]-(2S)-pyrrolidinyl]-5-thiazolyl]propionic acid]
- Dispersibility in Japanese Pharmacopoeia First Solution [1]: 1200 µg/mL
- Dispersibility in Japanese Pharmacopoeia Second Solution [1]: 1400 µg/mL
- Ki [2]: 1.2 nM

SMILES: C[C@@H]1CN([C@H]2C[C@@H](c3ncc(CCC(=O)O)s3)N(C(=O)Cc3cc(Cl)c(NC(=O)c4coc5ccccc45)cc3F)C2)C[C@H](C)O1 [Example 89]
- Dispersibility in Japanese Pharmacopoeia First Solution [1]: 1100 µg/mL
- Dispersibility in Japanese Pharmacopoeia Second Solution [1]: 1300 µg/mL
- Ki [2]: 1.3 nM

SMILES: C[C@@H]1CN([C@H]2C[C@@H](c3ncc(CCC(=O)O)s3)N(C(=O)Cc3cc(Cl)c(NC(=O)c4coc5ccccc45)cc3Cl)C2)C[C@H](C)O1 [Example 90]
- Dispersibility in Japanese Pharmacopoeia First Solution [1]: 1100 µg/mL
- Dispersibility in Japanese Pharmacopoeia Second Solution [1]: 1300 µg/mL
- Ki [2]: 1.3 nM

SMILES: CO[C@H]1C[C@@H](c2ncc(CCC(=O)O)s2)N(C(=O)Cc2ccc(Nc3nc4ccccc4o3)c(Cl)c2)C1 [Example 107, 3-[2-[1-[4-(2-Benzoxazolyl)amino-3-chlorophenyl]acetyl-(4S)-methoxy-(2S)-pyrrolidinyl]-5-thiazolyl]propionic acid]
- Dispersibility in Japanese Pharmacopoeia First Solution [1]: 700 µg/mL
- Dispersibility in Japanese Pharmacopoeia Second Solution [1]: 700 µg/mL
- Ki [2]: 9.2 nM

SMILES: CO[C@H]1C[C@@H](c2ncc(CCC(=O)O)s2)N(C(=O)Cc2cc(Cl)c(Nc3nc4ccccc4o3)cc2F)C1 [Example 108]
- Dispersibility in Japanese Pharmacopoeia First Solution [1]: 730 µg/mL
- Dispersibility in Japanese Pharmacopoeia Second Solution [1]: 730 µg/mL
- Ki [2]: 19 nM

SMILES: CO[C@H]1C[C@@H](c2ncc(CCC(=O)O)s2)N(C(=O)Cc2cc(Cl)c(Nc3nc4ccccc4o3)cc2Cl)C1 [Example 109, 3-[2-[1-[4-(2-Benzoxazolyl)amino-2,5-dichlorophenyl)acetyl-(4S)-methoxy-(2S)-pyrrolidinyl]-5-thiazolyl]propionic acid]
- Dispersibility in Japanese Pharmacopoeia First Solution [1]: 480 µg/mL
- Dispersibility in Japanese Pharmacopoeia Second Solution [1]: 750 µg/mL
- Ki [2]: 6.3 nM

SMILES: CO[C@H]1C[C@@H](c2ncc(CCC(=O)O)s2)N(C(=O)Cc2ccc(Nc3nc4ccccc4s3)c(Cl)c2)C1 [Example 110, 3-[2-[1-[4-(2-Benzothiazolyl)amino-3-chlorophenyl]acetyl-(4S)-methoxy-(2S)-pyrrolidinyl]-5-thiazolyl]propionic acid]
- Dispersibility in Japanese Pharmacopoeia First Solution [1]: 730 µg/mL
- Dispersibility in Japanese Pharmacopoeia Second Solution [1]: 730 µg/mL
- Ki [2]: 2.5 nM

SMILES: CO[C@H]1C[C@@H](c2ncc(CCC(=O)O)s2)N(C(=O)Cc2cc(Cl)c(Nc3nc4ccccc4s3)cc2F)C1 [Example 111, 3-[2-[1-[4-(2-Benzothiazolyl)amino-5-chloro-2-fluorophenyl]acetyl-(4S)-methoxy-(2S)-pyrrolidinyl]-5-thiazolyl]propionic acid]
- Dispersibility in Japanese Pharmacopoeia First Solution [1]: 570 µg/mL
- Dispersibility in Japanese Pharmacopoeia Second Solution [1]: 750 µg/mL
- Ki [2]: 3.3 nM
